pIC50: −log10 of the molar value.
How the values were obtained:
A549 cells = assay: Cytotoxicity assay, A549 cells; type: cell-based, human; conditions: for Cell viability compared to DMSO controls: 5 μM
Procedure: Cell culture—H1975 and A549 cells were cultured in RPMI-1640 medium (HyClone) with Earle's salts supplemented and penicillin/streptomycin (100 μg/ml), while HT1080 cells were cultured in MEM medium for Fig. 2 experiments. For all other cellular experiments, A549 cells were cultured in DMEM 4.5 g/L glucose medium (Gibco), and H1975 cells in RPMI-1640 ATCC Modification (Gibco). Cell cultures were maintained at 37 °C in 5% CO2 in a medium containing 10% fetal bovine serum (FBS) (GE Healthcare, A15-102 for Fig. 2 experiments and Sigma, F7524 for all others). Experiments were performed with or without supplementation with 100 nM sodium selenite as described.
Cytotoxicity assays— Cells were seeded in a 96-well plate at the density of 3 × 10^3 per well and allowed to adhere overnight. After which, cells were treated with various concentrations of compound for the indicated times, whereupon cell viability was determined using Cell Quanti-Blue™ Cell Viability Assay Kits (Nordic Diagnostica, CQBL-10K). Briefly, QUANTI-Blue Reagent (10 μL) was added to each well, incubated at 37 °C in 5% CO2 for 3 h, and then the plates were measured at 540nm/600 nm (Ex/Em) using the Tecan Microplate Reader (Morrisville NC, USA).

[1] = target: T1, glutathione reductase (GR) (Homo sapiens, UniProt P00390); assay: GR counter assay; type: biochemical; conditions: Extended Data Fig. 2A right panel
T1 construct: made in house
T1 sequence (P00390 44-522): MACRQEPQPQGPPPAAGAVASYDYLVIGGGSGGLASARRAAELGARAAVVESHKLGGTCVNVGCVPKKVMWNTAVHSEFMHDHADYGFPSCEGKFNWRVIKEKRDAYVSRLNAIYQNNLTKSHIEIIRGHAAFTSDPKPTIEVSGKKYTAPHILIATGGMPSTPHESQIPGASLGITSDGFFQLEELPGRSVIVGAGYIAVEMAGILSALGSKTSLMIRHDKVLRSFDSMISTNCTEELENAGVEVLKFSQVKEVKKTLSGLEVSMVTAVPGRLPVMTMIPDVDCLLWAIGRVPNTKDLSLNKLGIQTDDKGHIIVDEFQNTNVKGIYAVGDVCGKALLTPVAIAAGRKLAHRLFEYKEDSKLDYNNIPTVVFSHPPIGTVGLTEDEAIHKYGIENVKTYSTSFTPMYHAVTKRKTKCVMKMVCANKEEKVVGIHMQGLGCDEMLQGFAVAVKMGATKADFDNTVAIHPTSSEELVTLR
Procedure: Recombinant human proteins—Recombinant human selenoprotein GPX and TXNRD isoenzymes as well as recombinant human GR were cloned, expressed, and purified as described previously [[26], [27], [28]].
GR counter assay was run by incubating 198 μL of GR and BSA in TES buffer with 2 μL compound for 30 min before dispensing 50 μL GSSG and NADPH in TES for final concentrations of 100 nM GR, 1 mM GSSG, 0.4 mM NADPH, 0.01% BSA. Absorbance at 340 was measured as above.

[2] = A549, 24 h, no selenium supplementation
[3] = A549 in absence of selenium supplementation, 24 h

COC(=O)c1ccc([C@@H]2c3[nH]c4ccccc4c3C[C@@H](C(=O)OC)N2C(=O)CCl)cc1 [RSL3, (1S,3R)RSL3]
pIC50 (A549 cells; 24 h, media not supplemented with selenium): ~6.30 | Suppression of cell death by MitoTEMPO (A549 cells; [2]): but not by the mitochondrial antioxidant MitoTEMPO | Suppression of cell death by addition of ferrostatin-1 (A549 cells; [2]): at least 20 fold | Cell viability compared to DMSO controls (A549 cells; A549, non-selenium supplemented, 24 h): 10% | Cell viability compared to DMSO controls (A549 cells; A549, supplemented with 100 nM sodium selenite, 24 h): approximately 78% | Protection by caspase inhibitor z-VAD-fmk (A549 cells; [3]): did not protect these cells from RSL3 | Protection by necrostatin (A549 cells; [3]): partially protected by nectrostatin | Block of cell death by antioxidants and iron chelators (A549 cells; A549 without selenium supplementation, 24 h): blocked by ferrostatin, NDGA (another strong antioxidant), or the iron chelators DFO and DPD50 | Inhibition of GR [1]: did not inhibit GPX1 or GR

— PMC10149367, “The ferroptosis inducing compounds RSL3 and ML162 are not direct inhibitors of GPX4 but of TXNRD1” (Redox Biology, 2023)
